Reference: patent publication US8710043B2, “TRPM8 antagonists and their use in treatments” (Amgen Inc., priority 2011, dated 2014)

biological target: T1, human TRPM8 (Homo sapiens, UniProt Q7Z2W7); assay: Luminescence readout assay for measuring intracellular calcium, icilin activation; format: cell-based; conditions: CHO cells expressing human TRPM8, aequorin luminescence, 1 μM icilin activation; read-out: hTRPM8 IC50
T1 construct: expressed in transfected cells; host or cells: Chinese hamster ovary (CHO) cells, T-REx tetracycline-inducible system, co-transfected with aequorin
T1 sequence (Q7Z2W7 whole entry): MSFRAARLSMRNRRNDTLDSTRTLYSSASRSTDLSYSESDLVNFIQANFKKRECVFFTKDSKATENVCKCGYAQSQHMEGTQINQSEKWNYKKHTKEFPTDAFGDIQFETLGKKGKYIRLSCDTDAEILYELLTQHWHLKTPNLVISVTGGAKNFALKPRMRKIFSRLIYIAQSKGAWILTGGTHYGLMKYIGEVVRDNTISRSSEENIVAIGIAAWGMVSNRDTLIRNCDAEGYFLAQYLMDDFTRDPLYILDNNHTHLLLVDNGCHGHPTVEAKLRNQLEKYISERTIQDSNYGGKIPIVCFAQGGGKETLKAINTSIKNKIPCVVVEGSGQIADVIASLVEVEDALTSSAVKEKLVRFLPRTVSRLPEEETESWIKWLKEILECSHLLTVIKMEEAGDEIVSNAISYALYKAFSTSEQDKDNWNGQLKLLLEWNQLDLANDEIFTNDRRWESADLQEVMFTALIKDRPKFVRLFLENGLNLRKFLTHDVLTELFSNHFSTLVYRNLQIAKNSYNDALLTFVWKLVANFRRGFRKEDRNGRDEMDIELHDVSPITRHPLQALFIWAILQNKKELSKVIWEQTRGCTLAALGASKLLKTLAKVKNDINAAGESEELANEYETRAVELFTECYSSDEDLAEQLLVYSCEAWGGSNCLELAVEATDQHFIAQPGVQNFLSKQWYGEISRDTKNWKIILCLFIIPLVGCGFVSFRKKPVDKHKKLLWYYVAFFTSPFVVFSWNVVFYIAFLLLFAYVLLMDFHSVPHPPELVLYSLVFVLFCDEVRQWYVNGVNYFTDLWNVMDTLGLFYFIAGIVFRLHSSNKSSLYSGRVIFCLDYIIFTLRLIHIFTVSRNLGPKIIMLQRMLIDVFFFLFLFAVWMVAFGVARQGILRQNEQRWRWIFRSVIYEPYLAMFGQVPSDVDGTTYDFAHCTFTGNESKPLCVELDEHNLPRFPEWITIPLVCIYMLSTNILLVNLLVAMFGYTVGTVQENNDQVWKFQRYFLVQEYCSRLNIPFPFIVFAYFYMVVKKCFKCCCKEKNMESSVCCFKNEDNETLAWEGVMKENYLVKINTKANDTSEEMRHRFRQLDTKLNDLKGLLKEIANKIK
How it was run: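 The read-out was luminescence reporting intracellular calcium, recorded by a CCD-based luminometer. Compounds were preincubated for 2.5 min before agonist challenge with 1 μM icilin. Human TRPM8 was expressed in a stable T-REx CHO line, induced with 0.5 μg/mL tetracycline the day before.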

First: O=C(N[C@@H](c1ccc(C(F)(F)F)cc1)c1ncccc1C(F)(F)F)c1ccc(OC(F)(F)F)cc1 [Example 231, (S)-4-(trifluoromethoxy)-N-((4-(trifluoromethyl)phenyl)(3-(trifluoromethyl)pyridin-2-yl)methyl)benzamide]
Second: O=C(N[C@@H](c1ccc(C(F)(F)F)cc1)c1ncccc1C(F)(F)F)c1cccc(OC(F)(F)F)c1 [Example 219, (S)-3-(trifluoromethoxy)-N-((4-(trifluoromethyl)phenyl)(3-(trifluoromethyl)pyridin-2-yl)methyl)benzamide]
The IC50 of the first is 3.4-fold higher: 461 nM for the first, 137 nM for the second. The second is the more potent here.

Compared with `O=C(N[C@@H](c1ccc(C(F)(F)F)cc1)c1ncccc1F)c1ccc2[nH]c(=O)[nH]c2c1` [Example 177, (S)-N-((3-fluoropyridin-2-yl)(4-(trifluoromethyl)phenyl)methyl)-2-oxo-2,3-dihydro-1H-benzo[d]imidazole-5-carboxamide], `O=C(NC(c1ccc(C(F)(F)F)cc1)c1ncccc1F)c1ccccc1` (centres unmarked) [Example 193, N-((3-fluoropyridin-2-yl)(4-(trifluoromethyl)phenyl)methyl)benzamide] is 1.7-fold higher in IC50: 20.8 nM for the first, 34.8 nM for the second. The first is the more potent here.

First: N#Cc1ccccc1C(=O)N[C@@H](c1ccc(C(F)(F)F)cc1)c1ncccc1C(F)(F)F [Example 197, (S)-2-cyano-N-((4-(trifluoromethyl)phenyl)(3-(trifluoromethyl)pyridin-2-yl)methyl)benzamide]
Second: O=C(N[C@@H](c1ccc(C(F)(F)F)cc1)c1ncccc1C(F)(F)F)c1cccc(F)c1 [Example 227, (S)-3-fluoro-N-((4-(trifluoromethyl)phenyl)(3-(trifluoromethyl)pyridin-2-yl)methyl)benzamide]
The IC50 of the first is 2.8-fold higher: 115 nM for the first, 41.4 nM for the second. The second is the more potent here.

Compared with `O=C(N[C@@H](c1ccc(C(F)(F)F)cc1)c1ncccc1F)c1c[nH]c(=O)cn1` [Example 319, (S)-N-((3-fluoropyridin-2-yl)(4-(trifluoromethyl)phenyl)methyl)-5-oxo-4,5-dihydropyrazine-2-carboxamide], `O=C(N[C@@H](c1ccc(OC(F)(F)F)cc1)c1ncccc1F)c1ccc(=O)[nH]n1` [Example 350, (S)-N-((3-fluoropyridin-2-yl)(4-(trifluoromethoxy)phenyl)methyl)-6-oxo-1,6-dihydropyridazine-3-carboxamide] is 5.8-fold lower in IC50: 132 nM for the first, 22.7 nM for the second. The second is the more potent here.

First: COc1ncccc1C(=O)N[C@@H](c1ccc(C(F)(F)F)cc1)c1ncccc1C(F)(F)F [Example 29]
Second: COCCC(=O)N[C@@H](c1ccc(C(F)(F)F)cc1)c1ncccc1C(F)(F)F [Example 224, (S)-3-methoxy-N-((4-(trifluoromethyl)phenyl)(3-(trifluoromethyl)pyridin-2-yl)methyl)propanamide]
The IC50 of the first is 43-fold lower: 32.4 nM for the first, 1400 nM for the second. The first is the more potent here.

Compared with `Cc1cccnc1[C@@H](NC(=O)c1ccc2c(c1)OCC(=O)N2)c1ccc(C(F)(F)F)cc1` [Example 85, (S)-N-((3-methylpyridin-2-yl)(4-(trifluoromethyl)phenyl)methyl)-3-oxo-3,4-dihydro-2H-benzo[b][1,4]oxazine-7-carboxamide], `CC(C)(O)c1ccc(C(=O)N[C@@H](c2ccc(C(F)(F)F)cc2)c2ncccc2C(F)(F)F)cc1` [Example 121, (S)-4-(2-hydroxypropan-2-yl)-N-((4-(trifluoromethyl)phenyl)(3-(trifluoromethyl)pyridin-2-yl)methyl)benzamide] is 8.5-fold higher in IC50: 28.9 nM for the first, 247 nM for the second.

Going from `O=C1CCC(C(=O)N[C@@H](c2ccc(C(F)(F)F)cc2)c2ncccc2C(F)(F)F)CN1` (stereo partly drawn) [Example 65, 6-oxo-N-((S)-(4-(trifluoromethyl)phenyl)(3-(trifluoromethyl)pyridin-2-yl)methyl)piperidine-3-carboxamide] to `Cn1c(=O)c(=O)n(O)c2ccc(C(=O)N[C@@H](c3ccc(OC(F)(F)F)c(F)c3)c3ncccc3F)cc21` [Example 436, (S)—N-((3-Fluoro-4-(trifluoromethoxy)phenyl)(3-fluoropyridin-2-yl)methyl)-1-hydroxy-4-methyl-2,3-dioxo-1,2,3,4-tetrahydroquinoxaline-6-carboxamide], the IC50 falls from 245 nM to 22.4 nM (11-fold).
